Results from patent US20040176431A1, “Antiproliferative 2-(sulfo-phenyl)-aminothiazole derivatives and pharmaceutical compositions, and methods for their use” (Pfizer, Inc., priority 2003, published 2004).

Biological target: T1, CDK4/cyclin D3 (Homo sapiens, UniProt P11802)
T1 construct: made in house; host or cells: insect cells (baculovirus co-infection)
Assay: Inhibition of CDK4/Cyclin D retinoblastoma kinase activity;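 as to % Inhib CDK4/D @ 1 μM: relative to DMSO control wells without compound minus no-enzyme background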
Type: biochemical
Conditions: for % Inhib CDK4/D @ 0.1 μM / inhibition at 0.1 µM: test compound at 0.1 μM; for % Inhib CDK4/D @ 1 μM / inhibition at 1 µM: test compound at 1 μM (head line shifted: 'mM' printed beside 'Structure'); for % Inhib CDK4/D @ 0.03 / inhibition at 0.03 µM: test compound at 0.03 (unit cell empty, head line shifted; μM); for inhibition at 0.1 µM: read-out: % Inhib CDK4/D @ 0.1 μM; for inhibition at 1 µM: read-out: % Inhib CDK4/D @ 1 μM; for inhibition at 0.03 µM: read-out: % Inhib CDK4/D @ 0.03; for Ki: apparent Ki, Rb fragment substrate
How it was run: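 Apparent Ki derived by fitting activity at varied inhibitor concentrations to competitive (or competitive tight-binding) inhibition equations, background without enzyme subtracted. Radiometric filter-binding read-out of Rb(386-928) phosphorylation by 5 nM CDK4/cyclin D3(1-264); 25 μM ATP, pH 7.4, 2% DMSO, 30° C., 20 min, extended to 60 min for tight binders.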

T1 sequence (P11802 whole entry): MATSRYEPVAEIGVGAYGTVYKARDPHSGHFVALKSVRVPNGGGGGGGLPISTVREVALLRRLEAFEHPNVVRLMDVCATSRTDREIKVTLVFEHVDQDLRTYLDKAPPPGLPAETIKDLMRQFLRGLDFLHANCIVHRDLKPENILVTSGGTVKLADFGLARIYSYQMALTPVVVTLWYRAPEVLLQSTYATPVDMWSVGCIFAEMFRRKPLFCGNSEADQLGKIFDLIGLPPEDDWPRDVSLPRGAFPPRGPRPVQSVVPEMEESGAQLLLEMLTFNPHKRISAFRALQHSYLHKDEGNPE
T1 sequence (P30281 1-264 partner limits assumed): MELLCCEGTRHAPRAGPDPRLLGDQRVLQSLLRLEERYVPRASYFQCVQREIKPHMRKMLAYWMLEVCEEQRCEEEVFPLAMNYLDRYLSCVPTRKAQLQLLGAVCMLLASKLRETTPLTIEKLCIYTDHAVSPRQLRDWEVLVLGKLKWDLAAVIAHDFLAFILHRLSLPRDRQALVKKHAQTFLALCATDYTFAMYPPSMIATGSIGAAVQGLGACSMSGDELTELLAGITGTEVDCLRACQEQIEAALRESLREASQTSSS

% Inhib CDK4/D @ 0.1 μM (0.1 µM) [%]	% Inhib CDK4/D @ 1 μM [%]	% Inhib CDK4/D @ 0.03 [%]	inhibition at 0.1 µM [%]	inhibition at 1 µM [%]	inhibition at 0.03 µM [%]	% Inhib CDK4/D @ 0.1 μM [%]	Ki [nM]	Structure (SMILES)
36	10.3	3.5	–	–	–	–	–	CCN(CC)C(=O)CS(=O)(=O)c1ccc(Nc2nc(N)c(C(=O)c3c(Cl)cccc3Cl)s2)cc1 [DD(201)]
29	45.2	17	–	–	–	–	–	Cc1noc(C)c1CS(=O)(=O)c1ccc(Nc2nc(N)c(C(=O)c3c(Cl)cccc3Cl)s2)cc1 [DD(202)]
37	33.7	−5.5	–	–	–	–	–	COC(=O)/C=C/CS(=O)(=O)c1ccc(Nc2nc(N)c(C(=O)c3c(Cl)cccc3Cl)s2)cc1 [DD(203)]
29	20.8	−3.4	–	–	–	–	–	COC(=O)/C=C/CS(=O)(=O)c1ccc(Nc2nc(N)c(C(=O)c3c(Cl)cccc3Cl)s2)cc1 [DD(204)]
43	56.4	−4.1	–	–	–	–	–	Nc1nc(Nc2ccc(S(=O)(=O)CCCO)cc2)sc1C(=O)c1c(Cl)cccc1Cl [DD(205)]
24	47.3	−11	–	–	–	–	–	C=CCCS(=O)(=O)c1ccc(Nc2nc(N)c(C(=O)c3c(Cl)cccc3Cl)s2)cc1 [DD(206)]
41	36.8	−9.9	–	–	–	–	–	Nc1nc(Nc2ccc(S(=O)(=O)CCN3CCCC3)cc2)sc1C(=O)c1c(Cl)cccc1Cl [DD(207)]
36	47.8	0.2	–	–	–	–	–	Nc1nc(Nc2ccc(S(=O)(=O)Cc3ncon3)cc2)sc1C(=O)c1c(Cl)cccc1Cl [DD(208)]
8	−21	−10	–	–	–	–	–	Nc1nc(Nc2ccc(S(=O)(=O)CC3CNC(=O)O3)cc2)sc1C(=O)c1c(Cl)cccc1Cl (centres unmarked) [DD(209)]
–	–	–	21	-37	-22	–	–	CN(C)CCCS(=O)(=O)c1ccc(N(C)c2nc(N)c(C(=O)c3c(Cl)cccc3Cl)s2)cc1 [DD(210)]
–	−0.2	−11	–	–	–	21	–	Nc1nc(Nc2ccc(S(=O)(=O)CCN3CCCCC3)cc2)sc1C(=O)c1c(Cl)cccc1Cl [DD(211)]
17	−14	−16	–	–	–	–	–	Nc1nc(Nc2ccc(S(=O)(=O)CC3CO3)cc2)sc1C(=O)c1c(Cl)cccc1Cl (centres unmarked) [DD(212)]
14	−11	−22	–	–	–	–	–	CC(C)CCS(=O)(=O)c1ccc(Nc2nc(N)c(C(=O)c3c(Cl)cccc3Cl)s2)cc1 [DD(213)]
29	60.6	−10	–	–	–	–	–	COCCS(=O)(=O)c1ccc(Nc2nc(N)c(C(=O)c3c(Cl)cccc3Cl)s2)cc1 [DD(214)]
25	4.9	−15	–	–	–	–	–	Nc1nc(Nc2ccc(S(=O)(=O)CC(=O)Nc3ccccc3)cc2)sc1C(=O)c1c(Cl)cccc1Cl [DD(215)]
20	47.1	12	–	–	–	–	–	Nc1nc(Nc2ccc(S(=O)(=O)CC3CC3)cc2)sc1C(=O)c1c(Cl)cccc1Cl [DD(216)]
39	−21	−8	–	–	–	–	–	COc1cccc(CS(=O)(=O)c2ccc(Nc3nc(N)c(C(=O)c4c(Cl)cccc4Cl)s3)cc2)c1 [DD(217)]
33	23.4	−12	–	–	–	–	–	Nc1nc(Nc2ccc(S(=O)(=O)CC3CCCO3)cc2)sc1C(=O)c1c(Cl)cccc1Cl (centres unmarked) [DD(218)]
22	19.5	3.3	–	–	–	–	–	CN1CCCC1CCS(=O)(=O)c1ccc(Nc2nc(N)c(C(=O)c3c(Cl)cccc3Cl)s2)cc1 (centres unmarked) [DD(219)]
30	26.3	−19	–	–	–	–	–	CC1(CS(=O)(=O)c2ccc(Nc3nc(N)c(C(=O)c4c(Cl)cccc4Cl)s3)cc2)CO1 (centres unmarked) [DD(220)]
21	17.6	−14	–	–	–	–	–	NC(=O)CS(=O)(=O)c1ccc(Nc2nc(N)c(C(=O)c3c(Cl)cccc3Cl)s2)cc1 [DD(221)]

% Inhib CDK4/D @ 0.1 μM (0.1 µM) [%]	% Inhib CDK4/D @ 1 μM [%]	% Inhib CDK4/D @ 0.03 [%]	inhibition at 0.1 µM [%]	inhibition at 1 µM [%]	inhibition at 0.03 µM [%]	% Inhib CDK4/D @ 0.1 μM [%]	Ki [nM]	Structure (SMILES)
−11	−11	−9	–	–	–	–	–	CCOC(=O)CCS(=O)(=O)c1ccc(Nc2nc(N)c(C(=O)c3c(Cl)cccc3Cl)s2)cc1 [DD(222)]
35	11.7	−11	–	–	–	–	–	CC(C)OC(=O)CS(=O)(=O)c1ccc(Nc2nc(N)c(C(=O)c3c(Cl)cccc3Cl)s2)cc1 [DD(223)]
12	9.8	−2.6	–	–	–	–	–	CC(C)=CCS(=O)(=O)c1ccc(Nc2nc(N)c(C(=O)c3c(Cl)cccc3Cl)s2)cc1 [DD(224)]
17	0.6	−5	–	–	–	–	–	CCCS(=O)(=O)c1ccc(Nc2nc(N)c(C(=O)c3c(Cl)cccc3Cl)s2)cc1 [DD(225)]
18	−3.9	−6.3	–	–	–	–	–	COC(=O)CS(=O)(=O)c1ccc(Nc2nc(N)c(C(=O)c3c(Cl)cccc3Cl)s2)cc1 [DD(226)]
16	15.2	−12	–	–	–	–	–	CN1CCCC(CS(=O)(=O)c2ccc(Nc3nc(N)c(C(=O)c4c(Cl)cccc4Cl)s3)cc2)C1 (centres unmarked) [DD(227)]
29	43	1	–	–	–	–	–	NC(=O)CCS(=O)(=O)c1ccc(Nc2nc(N)c(C(=O)c3c(Cl)cccc3Cl)s2)cc1 [DD(228)]
23	3.5	−13	–	–	–	–	–	Nc1nc(Nc2ccc(S(=O)(=O)CCO)cc2)sc1C(=O)c1c(Cl)cccc1Cl [DD(229)]
20	−1.6	−17	–	–	–	–	–	CC(C)CCCS(=O)(=O)c1ccc(Nc2nc(N)c(C(=O)c3c(Cl)cccc3Cl)s2)cc1 [DD(230)]
–	–	–	27	33.3	-1.8	–	–	CC(C)CCOC(=O)CS(=O)(=O)c1ccc(N(C)c2nc(N)c(C(=O)c3c(Cl)cccc3Cl)s2)cc1 [DD(231)]
–	–	–	26	17.6	3.7	–	–	CN(C)CCS(=O)(=O)c1ccc(Nc2nc(N)c(C(=O)c3c(Cl)cccc3Cl)s2)cc1 [DD(232)]
–	–	–	11	-12	8.4	–	–	CCOCCS(=O)(=O)c1ccc(Nc2nc(N)c(C(=O)c3c(Cl)cccc3Cl)s2)cc1 [DD(233)]
–	–	–	35	26.1	9.6	–	–	CN(c1ccc(S(=O)(=O)CC(O)CO)cc1)c1nc(N)c(C(=O)c2c(Cl)cccc2Cl)s1 (centres unmarked) [DD(234)]
–	–	–	27	6.9	7.7	–	–	Nc1nc(Nc2ccc(S(=O)(=O)Cc3ccncc3)cc2)sc1C(=O)c1c(Cl)cccc1Cl [DD(235)]
–	–	–	30	1.7	-0.4	–	–	CCC(CC)CS(=O)(=O)c1ccc(Nc2nc(N)c(C(=O)c3c(Cl)cccc3Cl)s2)cc1 [DD(236)]
22	7.3	−1.7	–	–	–	–	–	CC(=O)OCCS(=O)(=O)c1ccc(Nc2nc(N)c(C(=O)c3c(Cl)cccc3Cl)s2)cc1 [DD(237)]
–	–	–	22	21.5	-19	–	–	CC(C)OC(=O)CCS(=O)(=O)c1ccc(N(C)c2nc(N)c(C(=O)c3c(Cl)cccc3Cl)s2)cc1 [DD(238)]
27	8	12	–	–	–	–	–	Nc1nc(Nc2ccc(S(=O)(=O)CCN3CCOCC3)cc2)sc1C(=O)c1c(Cl)cccc1Cl [DD(239)]
11	8.7	6.8	–	–	–	–	–	CC(C)(CO)CS(=O)(=O)c1ccc(Nc2nc(N)c(C(=O)c3c(Cl)cccc3Cl)s2)cc1 [DD(240)]
–	–	–	–	–	–	–	74	CSc1cccc(Nc2nc(N)c(C(=O)c3c(Cl)cccc3Cl)s2)c1 [R(3), 4-Amino-5-(2,6-dichlorobenzoyl)-2-(3-methylthio-phenylamino)-thiazole]
–	–	–	–	–	–	–	89	Nc1nc(Nc2ccc(Sc3ccncc3)cc2)sc1C(=O)c1c(Cl)cccc1Cl [W(1), 4-Amino-5-(2,6-dichloro-benzoyl)-2-[4-(pyridin-4-ylthio)-phenylamino]-thiazole]
